# In patent US20090239898A1 (SCIENCOM LTD., priority 2003, published 2009):
# Legend:
# semi-comatose patient = conditions: reverts when drug action subsides; cited from earlier work
# abnormal baboon = conditions: cited from earlier work
# [1] = tested on: patient who had suffered a stroke; experiment: Clinical observation after zolpidem in a stroke patient (Example 1); type: in vivo, human; conditions: 10 mg zolpidem
# Source text: They had suffered a stroke several years before and presented with left-sided paraplegia since the onset of their stroke. Their cognition was still normal but they had some aphasia and decreased proprioseption that was evident from their inability to use scissors with their right hand. The clinical and neurological features of the patient were unremarkable apart from the above.
# [2] = tested on: patient after subarachnoid haemorrhage; experiment: Brain SPECT before and after zolpidem after subarachnoid haemorrhage (Example 4); type: in vivo, human; conditions: 1 hour after 10 mg zolpidem
# [3] = tested on: patient with Ramsay-Hunt syndrome; experiment: Zolpidem therapy of Ramsay-Hunt syndrome (Example 3); type: in vivo, human
# Source text: On treatment, the following features improved. […] Also, as part of the syndrome they could not close their left eye. After zolpidem they could.
# [4] = tested on: patients with Spinocerebellar Ataxia Type 2; experiment: Clinical response to zolpidem in a family with Spinocerebellar Ataxia Type 2 (Example 2); type: in vivo, human
# Source text: There is currently no effective pharmacologic treatment for spinocerebellar ataxia. […] Spinocerebellar Ataxia Type 2 was confirmed by molecular analysis.
# Parkinson's disease = conditions: in vivo; cited from earlier work
# [5] = tested on: patient after subarachnoid haemorrhage; experiment: Hearing and speech evaluation before and after zolpidem after subarachnoid haemorrhage (Example 4); type: in vivo, human
# Description: The patient was then examined for any changes in hearing. […] The patient was also evaluated by the speech therapist before and after zolpidem.
smiles,measurement,setting,value
CN1C(=O)CN=C(c2ccccc2)c2cc(Cl)ccc21 [diazepam],state of consciousness after drug application,semi-comatose patient,not awakened
CCOC(=O)c1ncn2c1CN(C)C(=O)c1cc(F)ccc1-2 [flumazenil],effect on zolpidem-induced asymmetric perfusion pattern,abnormal baboon; abnormal baboon,attenuates the influence of zolpidem
Cc1ccc(-c2nc3ccc(C)cn3c2CC(=O)N(C)C)cc1 [zolpidem],brain perfusion,abnormal baboon; brain-abnormal baboon,asymmetric increased perfusion
same,state of consciousness after drug application,semi-comatose patient,exits their permanent vegetative state
same,clinical changes after zolpidem,[1],no marked clinical changes
same,ability to use scissors,[1]; for the next few hours until drug action subsided,able to use scissors
same,defect in the right parietal aspect of the brain,[2],remained unchanged
same,closing of left eye,[3]; after zolpidem,they could
same,drinking fluids,[3]; on zolpidem treatment,able to drink fluids directly from a cup
same,tonus of facial nerves,[3]; on zolpidem treatment,improved
same,time to clinical improvement,[4]; 10 mg zolpidem,≤ 1 h
same,patients improved clinically,"[4]; family of five patients, 10 mg zolpidem",four
same,"ataxia, intention tremor and titubation",[4]; patient P1,improved moderately
same,"ataxia, intention tremor and titubation",[4]; patient P2,improved
same,"ataxia, intention tremor and titubation",[4]; patient P3,improved moderately
same,clinical improvement,[4]; patient P4,no improvement
same,"ataxia, intention tremor and titubation",[4]; patient P5,slightly improved
same,obsessive-compulsive symptoms (cessation of verbal iterations),Parkinson's disease,improved
same,symptoms of PD (akinesia and rigidity),Parkinson's disease,improved
same,hearing (pre and post-zolpidem audiograms),[5]; after 10 mg zolpidem,improved
same,sleepiness,[5]; after 10 mg zolpidem,slightly sleepy
same,speech ability,[5]; after 10 mg zolpidem,improved markedly
same,persistence of hearing and speech improvements,[5]; even after halving the zolpidem dose,remained for the duration of drug action
